US9962341B2, “Active pharmaceutical ingredient (API) comprising cannabinoids for use in the treatment of cancer” (GW Pharma Limited, priority 2014, dated 2018)
pIC50: −log10 of the molar value. Read-outs that look alike come from different tables or passages of the source.

Tests used:
Type in all cases: cell-based
SKOV3 = assay: Cell viability (CellTiter-Blue, 72 h), SKOV3 ovarian cancer cells; settings: Homo sapiens, SK-OV-3
Protocol: (§1) The following cell lines were tested in this example: Lung Cancer (A549, NCI-H460); Pancreatic cancer (PANC1, Mia-Pa-Ca-2); Melanoma (WM115, A375); Ovarian cancer (OVCAR3, SKOV3); Gastric cancer (MKN45, HGC-27); Renal cancer (ACHN) and Bladder Cancer (RT112).
(§2) Each tumour cell line was maintained in vitro in RPMI 1640+10% heat inactivated FBS and 2 mM L-glutamine (growth media) at 37° C. in 5% CO2 and humidified conditions. The cells were harvested, washed, re-suspended into growth medium and counted. The cells were re-suspended into assay media (RPMI 1640+5% heat inactivated FBS+ and 2 mM L-glutamine) at 4×10^4 cells/ml (dependent upon cell type) and plated into the middle 240 wells of 384 well tissue culture plates (Corning CellBind, black-wall plates) 25 μl/well aliquots; 50 μl of growth media was aliquoted into the outer wells. There were 3 plates for each cell line.
(§3) The plates were incubated overnight at 37° C., in 5% humidified CO2.
(§4) The phytocannabinoid test compounds were prepared in 100% DMSO vehicle at a stock concentration of 20 and 40 mM.
(§5) Starting with the 20 mM stock in DMSO, this was serially diluted (2 fold) in DMSO in a 96-well plate, to 20 (no dilution), 10, 5, 2.5, 1.25, 0.625, 0.315, 0.157 and […]. Following this, 10 ul of each compound dilution was diluted into 990 ul of 1% (v/v) FBS media in a deep well block making the final concentrations of 200, 100, 50, 25, 12.5, 6.25, 3.125, 1.56 and 0.79 μM (2× final assay concentrations and 1% DMSO).
(§6) An equal volume of each cannabinoid in the combination (stock concentration 40 mM) was mixed together to make a stock of 20 mM of each cannabinoid in DMSO. This was serially diluted (2 fold) in DMSO in a 96-well plate, to 20 (no dilution), 10, 5, 2.5, 1.25, 0.625, 0.315, 0.157 and […]. Following this, 10 ul of each combination dilution was diluted into 990 ul of 1% (v/v) FBS media in a deep well block making the final concentrations of 200, 100, 50, 25, 12.5, 6.25, 3.125, 1.56 and 0.79 μM (2× final assay concentrations and 1% DMSO).
(§7) Cisplatin (stock of 1 mg/ml=3.33 mM in water) was diluted in 1% FBS media to give a stock concentration of 1 mM. This was then diluted in 1% FBS media from the stock solution to 200 μM, then serially diluted (3-fold) in 1% FBS media to 200 (no dilution), 66.66, 22.22, 7.41, 2.47, 0.82, 0.27, 0.09, 0.03 μM (2× final assay concentrations; no DMSO).
(§8) The plates were incubated for 72 h at 37° C. in 5% humidified CO2. To develop the plates, at 72 h, 10 μl of CellTiter-Blue™ reagent was added to each test/blank well.
(§9) The plates were incubated at 37° C., 5% humidified CO2. Fluorescence was measured using a Flex II Station plate reader (570 nm excitation wavelength, 600 nm emission wavelength, 590 nm cut-off) after 3 h.
(§10) The phytocannabinoid compounds CBD, CBGA, CBG, CBDA, THCV and THC were tested on a panel of lung (A549, NCI-H460), pancreatic (PANC1, Mia-Pa-Ca-2), melanoma (WM115, A375), ovarian (OVCAR3, SKOV3), gastric (MKN45, HGC-27), renal (ACHN) and bladder (RT112) cancer cell lines according to the protocol for 72 h in media containing 1% FBS.
(§11) The IC50 values for each phytocannabinoid and combination of CBD with the other phytocannabinoids was calculated for each cell line. The raw data values expressed in relative fluorescent units were normalised to the vehicle for each individual plate and any reduction in fluorescence indicated a decrease in viability.
(§12) This calculation was as described in Example 1 above.

A375 = assay: Cell viability (CellTiter-Blue, 72 h), A375 melanoma cells; settings: Homo sapiens, A-375, A375, 1% FBS
Protocol: as §1, §2, §3, §4, §5, §6, §7, §8, §9, §10, §11, §12

ACHN = assay: Cell viability (CellTiter-Blue, 72 h), ACHN renal cancer cells; settings: Homo sapiens
Protocol: as §1, §2, §3, §4, §5, §6
(§13) Taxotere SOC was prepared in 100% DMSO to give a stock concentration of 10 mM. This was diluted in DMSO from the stock solution to 200 μM, then serially diluted (3-fold) in DMSO to 200 (no dilution), 66.66, 22.22, 7.41, 2.47, 0.82, 0.27, 0.09, 0.03 μM. 10 ul of each of the taxotere dilutions was diluted in 990 ul of 1% (v/v) FBS media making the final concentrations of 2, 0.67, 0.22, 0.074, 0.0247, 0.0082, 0.0027 0.0009, 0.0003 μM (2× final assay concentrations and 1% DMSO).
as §8, §9, §10, §11, §12

Mia-Pa-Ca-2 = assay: Cell viability (CellTiter-Blue, 72 h), Mia-Pa-Ca-2 pancreatic cancer cells; settings: Homo sapiens
Protocol: as §1, §2, §3, §4, §5, §6
Gemcitabine SOC was prepared in 100% DMSO to give a stock concentration of 20 mM. This was then serially diluted (3 fold) in DMSO in a 96-well plate, to 20 (no dilution), 6.6, 2.2, 0.741, 0.247, 0.082, 0.027, 0.009 and 0.003 mM. Following this, 10 ul of each dilution was further diluted into 990 ul of 1% (v/v) FBS media making the final concentrations of 200 (no dilution), 66.66, 22.22, 7.41, 2.47, 0.82, 0.27, 0.09, 0.03 μM (2× final assay concentrations and 1% DMSO).
as §8, §9, §10, §11, §12

NCI-H460 = assay: Cell viability (CellTiter-Blue, 72 h), NCI-H460 lung cancer cells; settings: Homo sapiens
Protocol: as §1, §2, §3, §4, §5, §6, §13, §8, §9, §10, §11, §12

RT112 = assay: Cell viability (CellTiter-Blue, 72 h), RT112 bladder cancer cells; settings: Homo sapiens, RT-112
Protocol: as §1, §2, §3, §4, §5, §6, §7, §8, §9, §10, §11, §12

MKN45 = assay: Cell viability (CellTiter-Blue, 72 h), MKN45 gastric cancer cells; settings: Homo sapiens, MKN-45
Protocol: as §1, §2, §3, §4, §5, §6, §7, §8, §9, §10, §11, §12

[1] = SKOV3, 1% FBS, 72 h, read-out: Cell line IC50 value
[2] = SKOV3 cells, 1% FBS, read-out: Dm (potency, median effect)
[3] = 72 h, read-out: Cell line IC50 value
[4] = read-out: Dm (median effect dose)
[5] = read-out: Dm (potency, median effect)
[6] = MIA PaCa-2, 72 h, read-out: Cell line IC50 value
[7] = MIA PaCa-2, read-out: Dm (median effect dose)
[8] = NCI-H460, 72 h, read-out: Cell line IC50 value
[9] = NCI-H460, read-out: Dm (median effect dose)
[10] = RT112, 1% FBS, 72 h, read-out: Cell line IC50 value
[11] = RT112 cells, 1% FBS, read-out: Dm (potency, median effect)
[12] = MKN45, 1% FBS, 72 h, read-out: Cell line IC50 value
[13] = MKN45 cells, 1% FBS, read-out: Dm (potency, median effect)

Compound | pIC50 (SKOV3; [1]) | pIC50 (SKOV3; [2]) | pIC50 (A375; [3]) | pIC50 (A375; [4]) | pIC50 (ACHN; [3]) | pIC50 (ACHN; [5]) | pIC50 (Mia-Pa-Ca-2; [6]) | pIC50 (Mia-Pa-Ca-2; [7]) | pIC50 (NCI-H460; [8]) | pIC50 (NCI-H460; [9]) | pIC50 (RT112; [10]) | pIC50 (RT112; [11]) | pIC50 (MKN45; [12]) | pIC50 (MKN45; [13])
CCCCCc1cc(O)c2c(c1)OC(C)(C)[C@@H]1CCC(C)=C[C@@H]21 [THC, Tetrahydrocannabinol, reference compound] | 5.28 | 5.34 | 5.57 | 5.61 | 5.44 | 5.36 | 5.54 | 5.58 | 5.42 | 5.48 | 5.44 | 5.51 | 5.38 | 5.35
C=C(C)[C@@H]1CCC(C)=C[C@H]1c1c(O)cc(CCCCC)cc1O [CBD, Cannabidiol] | 5.51 | 5.50 | 5.54 | 5.58 | 5.48 | 5.51 | 5.59 | 5.70 | 5.60 | 5.59 | 5.70 | 5.75 | 5.47 | 5.41
C=C(C)[C@@H]1CCC(C)=C[C@H]1c1c(O)cc(CCCCC)c(C(=O)O)c1O [CBDA, Cannabidiolic acid] | 5.89 | 4.98 | 4.99 | 5.01 | 4.97 | 5.07 | 5.10 | 5.15 | 5.14 | 5.18 | 5.09 | 5.20 | 5.06 | 5.09
CC(=O)O[C@@]12CO[C@@H]1C[C@H](O)[C@@]1(C)C(=O)[C@H](O)C3=C(C)[C@@H](OC(=O)[C@H](O)[C@@H](NC(=O)OC(C)(C)C)c4ccccc4)C[C@@](O)([C@@H](OC(=O)c4ccccc4)[C@H]21)C3(C)C [Taxotere, Docetaxel, reference compound] | – | – | – | – | 8.74 | – | – | – | 8.96 | – | – | – | – | –
CCCCCc1cc(O)c(C/C=C(\C)CCC=C(C)C)c(O)c1C(=O)O [CBGA, Cannabigerolic acid] | 5.10 | 5.06 | 5.14 | 5.18 | 4.94 | 4.92 | 5.05 | 5.06 | 5.21 | 5.39 | 5.01 | 5.01 | 5.19 | 5.19
CCCCCc1cc(O)c(C/C=C(\C)CCC=C(C)C)c(O)c1 [CBG, Cannabigerol] | 5.26 | 5.32 | 5.68 | 5.72 | 5.52 | 5.53 | 5.66 | 5.69 | 5.40 | 5.40 | 5.60 | 5.67 | 5.37 | 5.38
CCCc1cc(O)c2c(c1)OC(C)(C)[C@@H]1CCC(C)=C[C@@H]21 [THCV, Tetrahydrocannabivarin] | 5.19 | 5.18 | 5.30 | 5.26 | 5.17 | 5.17 | 5.28 | 5.32 | 5.34 | 5.34 | 5.33 | 5.32 | 5.19 | 5.16
